Data as given in patent US20230348483A1, “PREPARATION METHOD FOR (S)-2-AMINO-3-(4-(2,3-DIMETHYLPYRIDIN-4-YL)PHENYL)METHYL PROPIONATE DIACID SALT” (Hangzhou Zhongmei Huadong Pharmaceutical Co., Ltd., priority 2020, published 2023).

Assays:
[1] = Stability test of salt forms at temperature 40° C. and humidity 75% (HPLC chemical purity, physical properties); format: physicochemical; details: for Appearance / Hygroscopicity / Purity (%): 40° C./75% placement for 1 day; for Purity (%) / Initial purity: chemical purity by HPLC; for Initial purity: before placement
Method: Compare the properties of the desired salts of compound V, includes but not limits to as herein oxalate or phosphate, to hydrochloride. Conduct the stability test under the condition of temperature 40° C. and humidity 75%, measure the chemical purity by HPLC and observe the physical properties.

[2] = Hygroscopicity and deterioration of compound IV as found by the researchers; format: physicochemical; details: solid, storage and transport

Question: For `COC(=O)[C@@H](N)Cc1ccc(-c2ccnc(C)c2C)cc1.Cl.Cl` [Hydrochloride, methyl (S)-2-amino-3-[4-(2,3-dimethylpyridin-4-yl)-phenyl]-propionate dihydrochloride], which Appearance [1] is on record?
Answer: Its Appearance is “Yellow solid”.

Question: What about the Hygroscopicity [1] of the same compound?
Answer: Its Hygroscopicity is “Strong”.

Question: What about the “Purity (%)” value [1] of the same compound?
Answer: The value was 87.5%.

Question: And the Initial purity [1]?
Answer: The Initial purity was 95.1.

Question: And the “Deterioration (storage stability)” value [2]?
Answer: The value was “easily to be deteriorated”.

Question: And the Hygroscopicity [2]?
Answer: The Hygroscopicity was “highly hygroscopic”.

Question: With `COC(=O)[C@@H](N)Cc1ccc(-c2ccnc(C)c2C)cc1.O=C(O)C(=O)O.O=C(O)C(=O)O` [Oxalate, methyl (S)-2-amino-3-[4-(2,3-dimethylpyridin-4-yl)-phenyl]-propionate diacid salt] as the compound, how does the Appearance [1] read?
Answer: Its Appearance is “White powder”.

Question: And the Hygroscopicity [1]?
Answer: The Hygroscopicity was “Almost none”.

Question: What about the “Purity (%)” value [1] of the same compound?
Answer: The value was 99.0%.

Question: And the Initial purity [1]?
Answer: The Initial purity was 99.1.

Question: Which Appearance [1] does the source give for `COC(=O)[C@@H](N)Cc1ccc(-c2ccnc(C)c2C)cc1.O=C(O)C(=O)O.O=C(O)C(=O)O` [Phosphate, methyl (S)-2-amino-3-[4-(2,3-dimethylpyridin-4-yl)-phenyl]-propionate diacid salt] here?
Answer: The Appearance was “White to light”.

Question: And the Hygroscopicity [1]?
Answer: The Hygroscopicity was “Slight”.

Question: And the “Purity (%)” value [1]?
Answer: Its value is 96.1%.

Question: What about the Initial purity [1] of the same compound?
Answer: The Initial purity was 98.5.
